Data set [1] is described as follows: Cytotoxicity: viability of M17 cells. The note with it: human, M17 neuroblastoma cells, Cytotoxicity (% viable at 1 and 10 uM); for viability at 1 uM: test compound 1 uM; for viability at 10 uM: test compound 10 uM.
Data set [2] is described as follows: Neurotoxicity assay: MTS viability of primary cortical neuronal cultures. The data set is classed as cell-based, mouse. Conditions: BL6Jx129sv, mouse, primary cortical neuronal cultures, Neuronal cells, read-out: Cytotoxicity (% viable at 1 and 10 uM); for viability at 4 days, 1 uM: test compound 1 uM; for viability at 4 days, 10 uM: test compound 10 uM. The procedure:
Media was then replaced with Neurobasal media (Invitrogen Life Technologies) and B27 supplements (Invitrogen Life Technologies). Cultures were maintained at 37° C. in 5% CO2. Prior to experimentation, the culture medium was replaced with Neurobasal media and B27 minus antioxidants (Invitrogen Life Technologies).
Cell viability is determined using the MTS assay. Culture medium is replaced with fresh neurobasal medium plus B27 supplements minus antioxidants. 1/10th volume MTS solution (Cell Titre 96 Aqueous One, Promega Corporation) and incubated at 37° C., 2 hrs. 200 microlitre aliquots are measured with a spectrophotometer at 560 nm.
Neuronal cortical cells were cultured for five days as per Assay 2 in NB media and B27 supplement.
On day six the test compounds were added to the neuronal cell cultures in NB media and B27 supplement minus antioxidants.
Test compounds were dissolved in 100% DMSO to a concentration of 2.5 mM (10 mM if excess compound was weighed out per vial—then diluted to 2.5 mM). […] Test compounds were not added directly to cells, instead they were added to a 48 well ‘Drug Plate’ as comprised below:
The Drug Plate was incubated at 37° C. for 15 mins. 200 μl of each well was added in triplicate to the corresponding cell plate. The cell plate was incubated at 37 C, for 4 days.
On completion of the assay, 1/10 volume MTS was added per well of plate (i.e. 25 μl/250 μl). The plates were incubated at 37 C for 2 hrs, and then absorbance was read at 560 nm.

For the compound `O=c1c2cccc(O)c2ncn1Cc1ccccn1`, in data set [1], the viability at 1 uM stood at 109% and the viability at 10 uM stood at 96%.
On the same counts, the results for `O=c1c2cccc(O)c2ncn1Cc1ccncc1` are 105% and 104%.
On the same counts, the results for `CCn1cnc2c(O)ccc(Cl)c2c1=O` are 101% and 85.4%.
For `O=C(Nc1cnc2ccccc2c1)c1cnc2c(O)cccn2c1=O`, in data set [1], the viability at 1 uM was 102% and the viability at 10 uM amounted to 32.8%.
With `O=c1c2cccc(O)c2ncn1-c1cccnc1`, in data set [1], the viability at 1 uM worked out at 106% and the viability at 10 uM was 110%.
For `O=C1c2ccccc2C(=O)N1CCn1cnc2c(O)cccc2c1=O`, in data set [1], the viability at 1 uM came out at 104% and the viability at 10 uM is 106%.
As for `CCCCNC(=O)c1cnc2c(O)cccn2c1=O`, in data set [1], the viability at 1 uM stood at 98.8% and the viability at 10 uM turned out to be 48.4%.
For `CCN(CC)CCn1cnc2c(O)c(I)ccc2c1=O`, in data set [1], the viability at 1 uM is 106% and the viability at 10 uM came to 41.4%.
Consider `O=c1c2cccc(O)c2ncn1Cc1ccccc1`, for which, in data set [1], the viability at 1 uM is 98.5% and the viability at 10 uM was 90.4%.
The corresponding values for `O=c1c2c(Cl)cc(Cl)c(O)c2ncn1CC1CCN(Cc2ccccc2)CC1` are 109% and 83.4%.
Consider `CCCNC(=O)Cn1cnc2c(O)c(I)ccc2c1=O`, for which, in data set [1], the viability at 1 uM is 84.3% and the viability at 10 uM came out at 95.5%.
The corresponding values for `O=c1c(CCCC2CCSS2)cnc2c(O)cccn12` (stereo not drawn) are 106% and 27.2%.
On the same counts, the results for `CCN(CC)CCNC(=O)c1cnc2c(O)cccn2c1=O` are 115% and 103%.
On to `O=C1c2ccccc2C(=O)N1CCn1cnc2c(O)c(Cl)cc(Cl)c2c1=O`, for which, in data set [1], the viability at 1 uM came to 104% and the viability at 10 uM turned out to be 101%.
As for `O=c1c2cccc(O)c2ncn1Cc1ccc(F)cc1`, in data set [1], the viability at 1 uM was 97.2% and the viability at 10 uM came out at 60.5%.
The corresponding values for `CCCn1cnc2c(O)ccc(Cl)c2c1=O` are 89.4% and 79.4%.
For `Cc1noc(-n2cnc3c(O)c(Cl)cc(Cl)c3c2=O)c1C`, in data set [1], the viability at 1 uM came to 99.6% and the viability at 10 uM stood at 95.4%.
With `O=c1c2cccc(O)c2ncn1-c1nc2ccc(F)cc2s1`, in data set [1], the viability at 1 uM was determined as 99.1% and the viability at 10 uM came out at 73.7%.
Turning to `O=c1c(-c2ccc(F)cc2)cnc2c(O)cccn12`, in data set [1], the viability at 1 uM was 75.3% and the viability at 10 uM was determined as 33.8%.
Turning to `O=c1c2ccc(I)c(O)c2ncn1CCNS(=O)(=O)c1ccc(F)cc1`, in data set [1], the viability at 1 uM stood at 96.5% and the viability at 10 uM came to 43%.
In the case of `CCCCc1cnc2c(O)c(-c3cccc(OC)c3)ccn2c1=O`, in data set [1], the viability at 1 uM was found to be 94.5% and the viability at 10 uM is 59.1%.
With `O=c1c2c(Cl)cc(Cl)c(O)c2nc2n1CCC2`, in data set [1], the viability at 1 uM came to 115% and the viability at 10 uM was found to be 93.9%.
Consider `COc1ccc(-n2cnc3c(O)cccc3c2=O)cn1`, for which, in data set [1], the viability at 1 uM turned out to be 97.8% and the viability at 10 uM worked out at 110%.
As to `Cc1nc2ccccc2c(=O)n1O`, in data set [1], the viability at 1 uM turned out to be 101% and the viability at 10 uM came out at 115%.
`O=C(Nc1ccc(F)cc1F)c1cnc2c(O)cccn2c1=O`: in data set [1], the viability at 1 uM worked out at 99.4% and the viability at 10 uM was found to be 67.1%.
For `CCCS(=O)(=O)NCCn1cnc2c(O)c(I)ccc2c1=O`, in data set [1], the viability at 1 uM amounted to 104% and the viability at 10 uM stood at 98.6%.
In the case of `O=C1c2ccccc2C(=O)N1CCn1cnc2c(O)c(I)ccc2c1=O`, in data set [1], the viability at 1 uM stood at 127% and the viability at 10 uM stood at 105%.
With `O=c1c2c(Cl)cc(I)c(O)c2ncn1-c1cccnc1`, in data set [1], the viability at 1 uM came to 97.4% and the viability at 10 uM is 95%.
Turning to `CCCCc1cnc2c(O)c(-c3ccc(OC)cc3)ccn2c1=O`, in data set [1], the viability at 1 uM turned out to be 79.2% and the viability at 10 uM was found to be 64.4%.
On the same counts, the results for `CC(C)Cn1c(CN(C)C)nc2c(O)c(Cl)cc(Cl)c2c1=O` are 104% and 61.5%.
`CCN(CC)C(=O)Cn1cnc2c(O)c(Cl)cc(Cl)c2c1=O`: in data set [1], the viability at 1 uM was determined as 122% and the viability at 10 uM worked out at 104%.
Turning to `O=c1c2cccc(O)c2ncn1CCc1ccccn1`, in data set [1], the viability at 1 uM stood at 107% and the viability at 10 uM was 96.2%.
Consider `O=C(NCc1ccc(F)cc1)c1cnc2c(O)cccn2c1=O`, for which, in data set [1], the viability at 1 uM worked out at 76.7% and the viability at 10 uM was 54.2%.
As for `O=c1c2c(Cl)cc(Cl)c(O)c2ncn1CCN1Cc2ccccc2C1`, in data set [1], the viability at 1 uM turned out to be 103% and the viability at 10 uM was found to be 62.1%.
For the compound `O=c1c2c(Cl)ccc(O)c2ncn1Cc1ccccn1`, in data set [1], the viability at 1 uM amounted to 93.6% and the viability at 10 uM was determined as 88.4%.
In the case of `O=c1c2c(Cl)cc(Cl)c(O)c2ncn1CC1CCNCC1`, in data set [2], the viability at 4 days, 1 uM is 97% and the viability at 4 days, 10 uM is 96%.
On the same counts, the results for `O/N=C/c1ccc2cccc(O)c2n1` are 100% and 95%.
Regarding `Nc1ccc(O)c2ncccc12`, in data set [2], the viability at 4 days, 1 uM was determined as 108% and the viability at 4 days, 10 uM was found to be 71%.
With `CC(Br)CCn1cnc2c(O)c(Cl)cc(Cl)c2c1=O` (stereo not drawn), in data set [2], the viability at 4 days, 1 uM was 101% and the viability at 4 days, 10 uM came to 73%.
Consider `CSc1ccccc1-c1ccc2cccc(O)c2n1`, for which, in data set [2], the viability at 4 days, 1 uM is 114% and the viability at 4 days, 10 uM amounted to 112%.
The corresponding values for `O=C(c1ccc2cccc(O)c2n1)N(Cc1ccccn1)Cc1ccccn1` are 81% and 79%.
On to `Oc1cccc2ccc(CN(CCc3c[nH]cn3)Cc3c[nH]cn3)nc12`, for which, in data set [2], the viability at 4 days, 1 uM is 97% and the viability at 4 days, 10 uM is 26%.
Regarding `Oc1c(-c2ccc(F)cc2F)cc(Cl)c2cccnc12`, in data set [2], the viability at 4 days, 1 uM is 90% and the viability at 4 days, 10 uM amounted to 42%.
Regarding `NC(=O)c1ccc2c(Cl)cc(Cl)c(O)c2n1`, in data set [2], the viability at 4 days, 1 uM came to 74% and the viability at 4 days, 10 uM came to 86%.
`Oc1c(Br)cc(-c2cc(F)cc(F)c2)c2cccnc12`: in data set [2], the viability at 4 days, 1 uM is 95% and the viability at 4 days, 10 uM amounted to 95%.
Regarding `Oc1c(Cl)cc(-c2cccnc2)c2cccnc12`, in data set [2], the viability at 4 days, 1 uM amounted to 101% and the viability at 4 days, 10 uM came out at 84%.
For the compound `Oc1c(Br)cc(-c2ccccc2)c2cccnc12`, in data set [2], the viability at 4 days, 1 uM was 100% and the viability at 4 days, 10 uM is 97%.
On to `Oc1cccc2ccc(CN(Cc3ccccn3)Cc3c[nH]cn3)nc12`, for which, in data set [2], the viability at 4 days, 1 uM turned out to be 90% and the viability at 4 days, 10 uM is 70%.
`Cc1cccc(-c2ccc3cccc(O)c3n2)n1`: in data set [2], the viability at 4 days, 1 uM was determined as 91% and the viability at 4 days, 10 uM was 58%.
Consider `Oc1c(-c2cccc(F)c2)cc(Cl)c2cccnc12`, for which, in data set [2], the viability at 4 days, 1 uM is 98% and the viability at 4 days, 10 uM turned out to be 71%.
The corresponding values for `CCOC(=O)c1cnc2c(O)c(CC)ncc2c1` are 103% and 92%.
Turning to `Oc1c(-c2cc(F)cc(F)c2)cc(Cl)c2cccnc12`, in data set [2], the viability at 4 days, 1 uM is 90% and the viability at 4 days, 10 uM worked out at 66%.
Regarding `O=S(=O)(O)c1cc(I)c(O)c2ncccc12`, in data set [2], the viability at 4 days, 1 uM amounted to 70% and the viability at 4 days, 10 uM worked out at 71%.
Take `O=C(O)c1ccc2c(Cl)cc(Cl)c(O)c2n1`: in data set [2], the viability at 4 days, 1 uM worked out at 88% and the viability at 4 days, 10 uM is 80%.
Consider `CO/N=C/c1ccc2c(Cl)cc(Cl)c(O)c2n1`, for which, in data set [2], the viability at 4 days, 1 uM turned out to be 77% and the viability at 4 days, 10 uM was determined as 54%.
In the case of `Oc1ccccc1-c1cc(Cl)c2cccnc2c1O`, in data set [2], the viability at 4 days, 1 uM worked out at 100% and the viability at 4 days, 10 uM is 70%.
On to `Oc1c(I)cc(-c2ccccc2C(F)(F)F)c2cccnc12`, for which, in data set [2], the viability at 4 days, 1 uM is 91% and the viability at 4 days, 10 uM stood at 90%.
On the same counts, the results for `Cc1ccccc1-c1cc(-c2ccccc2C)c2cccnc2c1O` are 93% and 34%.
Regarding `O=[N+]([O-])c1cccc(-c2cc(Cl)c3cccnc3c2O)c1`, in data set [2], the viability at 4 days, 1 uM was found to be 92% and the viability at 4 days, 10 uM amounted to 78%.
As to `COc1ccccc1-c1cc(I)c(O)c2ncccc12`, in data set [2], the viability at 4 days, 1 uM turned out to be 91% and the viability at 4 days, 10 uM amounted to 35%.
As for `Oc1c(-c2ccsc2)cc(Cl)c2cccnc12`, in data set [2], the viability at 4 days, 1 uM stood at 93% and the viability at 4 days, 10 uM was 31%.
On the same counts, the results for `COc1ccc(-c2cc(Cl)c3cccnc3c2O)cc1` are 97% and 31%.
On the same counts, the results for `O=C(CNC(=O)c1cc(O)c2cccc(O)c2n1)NCc1ccccn1` are 93% and 93%.
